These results are taken from patent US5914319A, “Antithrombotic agents” (Eli Lilly and Company, priority 1995, dated 1999).

Structures can show the parent of a compound that is named as a salt.

Assay type in all cases: biochemical
The test system of assay [1] is Human plasma. In words: Human plasma anticoagulation, activated partial thromboplastin time (APTT). To be noted: concentration required to double the APTT, linear extrapolation. In a few lines:
(§1)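 Compounds added across a wide concentration range to plasma; PT measured with Thromboplastin-C, APTT after 120 s Actin incubation then 0.02 M CaCl2, TT with bovine thrombin (10 NIH units/mL). Clotting-time doubling concentrations estimated by linear extrapolation.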

The next assay addresses human thrombin (Homo sapiens, UniProt P00734). Briefly: Inhibition of the amidase activity of thrombin (Kass). Particulars: mean over a range of test compound concentrations; […].
Assay [2] relates to Human plasma. In words: Human plasma anticoagulation, thrombin time (TT). To be noted: concentration required to double the thrombin time, linear extrapolation. In outline: as §1
Assay [3] relates to Human plasma. Briefly: Human plasma anticoagulation, prothrombin time (PT). Particulars: concentration required to double the PT, linear extrapolation. In outline:
as §1

Take `N=C(N)c1ccc(CNC(=O)[C@@H]2C[C@@H]3CCCC[C@@H]3N2C(=O)[C@H]2CCCCN2)cc1` [Example 20, D-hPro-Ohi-p-NHCH2 C6 H4 C(NH)NH2.3HCl]: in the assay on Human plasma [1], the “Human Plasma Anticoagulation 2× Clotting time (ng/mL) APTT” value is on record as 550 ng/mL. For the same molecule, the “Kass × 10^6 (L/mole) Human Thrombin” value at human thrombin is 10 × 10^6 L/mole. The “Human Plasma Anticoagulation 2× Clotting time (ng/mL) TT” value in the assay with Human plasma [2] was 62 ng/mL. Moreover, the “Human Plasma Anticoagulation 2× Clotting time (ng/mL) PT” value in the assay on Human plasma [3] is 600 ng/mL.

`N=C(N)c1ccc(CNC(=O)[C@@H]2CCCN2C(=O)[C@@H](CCC2CCCCC2)NCC(=O)O)cc1` [Example 88, HOOCCH2 -D-hCha-Pro-p-NHCH2 C6 H4 C(NH)NH2.HCl]: the “Human Plasma Anticoagulation 2× Clotting time (ng/mL) APTT” value with Human plasma [1] is on record as 100 ng/mL. Also, the “Human Plasma Anticoagulation 2× Clotting time (ng/mL) TT” value with Human plasma [2] is on record as 4 ng/mL. The “Human Plasma Anticoagulation 2× Clotting time (ng/mL) PT” value with Human plasma [3] was 200 ng/mL.

As for `Cl.N=C(N)c1ccc(CNC(=O)CN(CCc2ccccc2)C(=O)CNCC(=O)O)cc1` [Example 89, HOOCCH2 -Gly-N-C6 H5 CH2 CH2 Gly-p-NHCH2 C6 H4 C(NH)NH2.HCl], in the assay with Human plasma [1], the “Human Plasma Anticoagulation 2× Clotting time (ng/mL) APTT” value is recorded as 51,000 ng/mL. Besides, the “Human Plasma Anticoagulation 2× Clotting time (ng/mL) TT” value with Human plasma [2] is reported as 570 ng/mL. Besides, the “Human Plasma Anticoagulation 2× Clotting time (ng/mL) PT” value with Human plasma [3] was 37,000 ng/mL.

As to `CCC(CC)C(=O)N[C@@H](CCC(=O)O)C(=O)N1CCC[C@H]1C(=O)NCc1ccc(C(=N)N)cc1` [Example 90, (C2 H5)2 CHCO-Glu-Pro-p-NHCH2 C6 H4 C(NH)NH2.HCl], the “Human Plasma Anticoagulation 2× Clotting time (ng/mL) APTT” value with Human plasma [1] is 14,500 ng/mL. Also, in the assay with Human plasma [2], the “Human Plasma Anticoagulation 2× Clotting time (ng/mL) TT” value is recorded as 330 ng/mL. The “Human Plasma Anticoagulation 2× Clotting time (ng/mL) PT” value in the assay with Human plasma [3] was 14,600 ng/mL.

Consider `CCC(CC)C(=O)N[C@@H](CCS(C)(=O)=O)C(=O)N1CCC[C@H]1C(=O)NCc1ccc(C(=N)N)cc1` [Example 91, (C2 H5)2 CHCO-Met(O2)-Pro-p-NHCH2 C6 H4 C(NH)NH2.HCl], for which, in the assay with Human plasma [1], the “Human Plasma Anticoagulation 2× Clotting time (ng/mL) APTT” value is recorded as 3,000 ng/mL. Also, the “Human Plasma Anticoagulation 2× Clotting time (ng/mL) TT” value in the assay with Human plasma [2] is 63 ng/mL. Moreover, the “Human Plasma Anticoagulation 2× Clotting time (ng/mL) PT” value with Human plasma [3] is 3,500 ng/mL.

Take `CS(=O)(=O)CC(=O)N[C@H](CC1CCCCC1)C(=O)N1CCC[C@H]1C(=O)NCc1ccc(C(=N)N)cc1` [Example 92, MeSO2 CH2 CO-D-Cha-Pro-p-NHCH2 C6 H4 C(NH)NH2.HCl]: the “Human Plasma Anticoagulation 2× Clotting time (ng/mL) APTT” value in the assay with Human plasma [1] is listed as 210 ng/mL. In addition, in the assay with Human plasma [2], the “Human Plasma Anticoagulation 2× Clotting time (ng/mL) TT” value was 8.9 ng/mL. In addition, in the assay on Human plasma [3], the “Human Plasma Anticoagulation 2× Clotting time (ng/mL) PT” value was 340 ng/mL.

On to “D-hPro-Pro-p-NHCH2 C6 H4 C(NH)NH2.HCl [Example 17]”, for which, in the assay on Human plasma [1], the “Human Plasma Anticoagulation 2× Clotting time (ng/mL) APTT” value is 370 ng/mL. For the same molecule, the “Human Plasma Anticoagulation 2× Clotting time (ng/mL) TT” value in the assay with Human plasma [2] was 26 ng/mL. Further, the “Human Plasma Anticoagulation 2× Clotting time (ng/mL) PT” value in the assay on Human plasma [3] is recorded as 400 ng/mL.

As for “EtSO2 -D-Phe-Pro-p-NHCH2 CH2 C6 H4 CNH(NH)NH2.HCl [Example 35]”, the “Human Plasma Anticoagulation 2× Clotting time (ng/mL) APTT” value in the assay on Human plasma [1] is reported as 50,400 ng/mL. The “Human Plasma Anticoagulation 2× Clotting time (ng/mL) TT” value in the assay on Human plasma [2] is 4,500 ng/mL. Moreover, the “Human Plasma Anticoagulation 2× Clotting time (ng/mL) PT” value in the assay with Human plasma [3] was 78,400 ng/mL.

With “HOOCCH2 -D-Phe-Pro(4-cis-isoamyl)-p-NHCH2 C6 H4 C(NH)NH2.HCl [Example 50]”, the “Human Plasma Anticoagulation 2× Clotting time (ng/mL) APTT” value with Human plasma [1] is 460 ng/mL. In addition, the “Human Plasma Anticoagulation 2× Clotting time (ng/mL) TT” value in the assay on Human plasma [2] is given as 35 ng/mL. The “Human Plasma Anticoagulation 2× Clotting time (ng/mL) PT” value with Human plasma [3] is recorded as 420 ng/mL.

As to “HOOCCH2 -D-Phe-Pro-p-NHCH2 C6 H4 C(NH)NH2.HCl [Example 46]”, the “Human Plasma Anticoagulation 2× Clotting time (ng/mL) APTT” value in the assay with Human plasma [1] is given as 67 ng/mL. Also, the “Human Plasma Anticoagulation 2× Clotting time (ng/mL) TT” value in the assay on Human plasma [2] is 2. ng/mL. Also, in the assay on Human plasma [3], the “Human Plasma Anticoagulation 2× Clotting time (ng/mL) PT” value is 77 ng/mL.

Regarding NMI-D-Phe-Pro-Agm.HCl [Example 4], on human thrombin, the “Kass × 10^6 (L/mole) Human Thrombin” value is on record as 13. × 10^6 L/mole. Also, the “Human Plasma Anticoagulation 2× Clotting time (ng/mL) TT” value in the assay on Human plasma [2] is on record as 230 ng/mL.
